{
  "source": "paper PMC6625456",
  "about": "(Molecular Medicine Reports, 2019)",
  "key": {"[1]": {"assay": "plasma pharmacokinetics after oral and intravenous administration", "type": "in vivo, Sprague-Dawley (SD) rats", "conditions": "both, Sprague-Dawley, rat"}, "[2]": {"assay": "concentration in entorhinal cortex and hippocampus after oral administration", "type": "in vivo, Sprague-Dawley (SD) rats"}, "[3]": {"assay": "cumulative excretion in bile, urine and feces", "type": "in vivo, Sprague-Dawley (SD) rats", "conditions": "oral 100 mg/kg"}, "[4]": {"target": "CYP2D6 (Homo sapiens, UniProt P10635)", "sequence (P10635 whole entry)": "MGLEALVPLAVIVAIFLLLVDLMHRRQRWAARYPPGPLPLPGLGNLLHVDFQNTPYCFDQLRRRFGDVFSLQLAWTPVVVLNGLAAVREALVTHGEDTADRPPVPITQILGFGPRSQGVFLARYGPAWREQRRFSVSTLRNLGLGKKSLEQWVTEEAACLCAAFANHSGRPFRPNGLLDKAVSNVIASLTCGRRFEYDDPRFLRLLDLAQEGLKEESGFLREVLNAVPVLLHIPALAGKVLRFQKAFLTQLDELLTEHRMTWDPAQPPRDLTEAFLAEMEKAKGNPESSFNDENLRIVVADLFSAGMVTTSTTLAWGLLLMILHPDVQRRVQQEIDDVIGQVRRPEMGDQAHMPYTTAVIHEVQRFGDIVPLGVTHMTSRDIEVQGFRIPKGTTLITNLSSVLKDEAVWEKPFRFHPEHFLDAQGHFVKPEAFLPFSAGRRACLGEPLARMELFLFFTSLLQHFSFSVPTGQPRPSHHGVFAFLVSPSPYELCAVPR", "assay": "metabolism in recombinant human CYP450 enzymes", "type": "in vitro ADME", "conditions": "DL0410 10 µM; recombinant CYP1A2, CYP2C9, CYP2D6, CYP3A4; 37°C, 2 h"}, "[5]": {"system": "AChE", "conditions": "read-out: IC50, inhibition of AChE; in vitro; cited from earlier work"}, "[6]": {"system": "BChE", "conditions": "read-out: IC50, inhibition of BChE; in vitro; cited from earlier work"}, "[7]": {"system": "APP/PS1 transgenic mice", "conditions": "cited from earlier work"}, "[8]": {"system": "Aβ1-42-induced amnesia in mice", "conditions": "cited from earlier work"}},
  "data": [
    {"smiles": "Cl.Cl.O=C(CCN1CCCCC1)c1ccc(-c2ccc(C(=O)CCN3CCCCC3)cc2)cc1", "note": "[DL0410, 1,1′-([1,1′-biphenyl]-4,4′-diyl)bis(3-(piperidin-1-yl)propan-1-one) dihydrochloride]", "values": [
      {"measurement": "Tmax", "setting": "[1]", "value": "~0.75", "unit": "h"},
      {"measurement": "half-life", "setting": "[1]", "value": "6.05 to 8.23", "unit": "h"},
      {"measurement": "Cmax", "setting": "[1]; 25 mg/kg", "value": "21.5 ± 3.46", "unit": "ng/mL"},
      {"measurement": "AUC(0-t)", "setting": "[1]; 50 mg/kg", "value": "239 ± 63", "unit": "ng·h/mL"},
      {"measurement": "Cmax", "setting": "[1]; 50 mg/kg", "value": "56.1 ± 4.01", "unit": "ng/mL"},
      {"measurement": "Cmax", "setting": "[1]; 100 mg/kg", "value": "196 ± 46.8", "unit": "ng/mL"},
      {"measurement": "Tmax", "setting": "[2]; both, Sprague-Dawley, rat, entorhinal cortex and hippocampus, po, 100 mg/kg", "value": "~6", "unit": "h"},
      {"measurement": "Cmax", "setting": "[2]; both, Sprague-Dawley, rat, entorhinal cortex, po, 100 mg/kg", "value": "46.2 ± 13.2", "unit": "ng/mL"},
      {"measurement": "Cmax", "setting": "[2]; both, Sprague-Dawley, rat, hippocampus, po, 100 mg/kg", "value": "50.3 ± 6.92", "unit": "ng/mL"},
      {"measurement": "crossing of the blood-brain barrier", "setting": "[2]; rats, oral 100 mg/kg, detectable level in EC and HIP", "value": "able to cross the blood-brain barrier"},
      {"measurement": "accumulated excretion in bile", "setting": "[3]; rat bile, for 36 h", "value": "0.010 % of the dose"},
      {"measurement": "cumulative fecal excretion", "setting": "[3]; rat feces", "value": 34.71, "unit": "%"},
      {"measurement": "cumulative urinary excretion", "setting": "[3]; rat urine, in 72 h", "value": "0.086 % of the dose"},
      {"measurement": "CYP450 isoform involved in the reduction reaction", "setting": "[4]", "value": "CYP2D6 was identified to be involved in the reduction of the carbonyl group"},
      {"measurement": "IC50", "setting": "[5]", "value": "286 ± 4", "unit": "nM"},
      {"measurement": "IC50", "setting": "[6]", "value": "3960 ± 99", "unit": "nM"},
      {"measurement": "improvement of memory deficits", "setting": "[7]", "value": "improve memory deficits in APP/PS1 transgenic mice"},
      {"measurement": "improvement of Aβ1-42-induced amnesia", "setting": "[8]", "value": "improve memory deficits"}
    ]}
  ]
}
